Test results: patent publication US20200239832A1, “TOLERANCE OF MICROBIAL CELLS AGAINST ORTHO-AMINOBENZOATE IN PRESENCE OF ALKALI IONS AT NEUTRAL PH” (priority 2017, published 2020)

Legend:
Format in all cases: cell-based, Corynebacterium glutamicum
[1] = tested on: C. glutamicum strain derived from ATCC 13032 by evolutionary engineering; test: Comparison of metabolic activity after NH4-oAB and Na-oAB addition, batch cultivation in 1 L bioreactors (Example 2); conditions: 40 mL of 500 g/L oAB stock solution at pH 7 added after 7 h and 24 h; FIG. 2
Protocol: (§1) FIG. 2: Influence of Na-oAB and NH4-oAB addition on oAB resistance during batch cultivation in 1 L scale with C. glutamicum ATCC 13032. Filled symbols: addition of 40 mL of 500 a oAB stock solution (oAB dissolved with NaOH at pH 7) after 7 h and 24 h. Open symbols: addition of 40 mL of 500 g/L oAB stock solution (oAB dissolved with NH4OH at pH 7) after 7 h and 24 h. Both bioreactors: addition of 36 g/L glucose (added as stock solution) after 7.5 h and 24.5 h to prevent a glucose limitation. Initial cultivation volume VL=1 L, temperature 30° C., pH=7 controlled with NH4OH (10 w % NH3), gassing rate with air=0.2 L/min, pO2 controlled at 30% air saturation by adjusting the stirrer speed between 200 and 1200 rpm.
A C. glutamicum strain derived from ATCC 13032 was used to compare the metabolic activity after NH4-oAB and Na-oAB addition during the cultivation. This strain was derived from Corynebacterium glutamicum ATCC 13032 by evolutionary engineering in order to increase its resistance against oAB.
It was not further genetically modified. Thus it was not capable of oAB-production. For this purpose, two 1 L bioreactors were filled with sterile cultivation medium including the following initial concentrations: 20 g/L glucose, 5 g/L (NH4)2SO4, 1 g/L KH2PO4, 1 g/L K2HPO4, 0.25 g/L MgSO4.7 H2O, 0.01 g/L CaCl2.2 H2O, 2 mg/L biotin (vitamin B7), 0.03 g/L protocatechuic acid (3,4-Dihydroxybenzoic acid), 0.01 g/L MnSO4.H2O, 0.01 g/L FeSO4.7H2O, 1 mg/L ZnSO4.7H2O, 0.2 mg/L CuSO4.5H2O and 0.02 mg/L NiCl2.6H2O.
(§2) The preculture medium for the cultivation in shake flasks contained additionally 42 g/L MOPS buffer, 3.7 g/L brain heart infusion broth, 5 g/L urea (CH4N2O) and 20 a (NH4)2SO4 (instead of 5 g/L). The preculture was cultivated in 300 mL shake flasks with a liquid volume of 25 mL at a temperatur of 28° C. and a shaking frequency of 180 rpm until OD600>20 was reached.

C. glutamicum ATCC 13032 = test: Comparison of metabolic activity after NH4-oAB and Na-oAB addition, batch cultivation in 1 L bioreactors (Example 3); conditions: for biomass accumulation after oAB addition: 40 mL of 500 g/L oAB stock solution at pH 7 added after 6.4 h and 23.6 h, FIG. 3
Protocol: as §1, with “FIG. 3:” for “FIG. 2:”, “500 g/L” for “500 a”, “after 6.4” for “after 7”, “and 23.6” for “and 24”, “h.” for “h. Both bioreactors: addition of 36 g/L glucose (added as stock solution) after 7.5 h and 24.5 h to prevent a glucose limitation.”
The influence of NH4 was tested with C. glutamicum ATCC 13032 (without further genetic modifications, not modified by evolutionary engineering) using two 1 L bioreactors filled with sterile cultivation medium including the following initial concentrations: […], 5 g/L (NH4)2SO4, 1 g/L KH2PO4, 1 g/L K2HPO4, 0.25 g/L MgSO4.7 H2O, 0.01 g/L CaCl2.2 H2O, 2 mg/L biotin (vitamin B7), 0.03 g/L protocatechuic acid (3,4-Dihydroxybenzoic acid), 0.01 g/L MnSO4.H2O, 0.01 g/L FeSO4.7H2O, 1 mg/L ZnSO4.7H2O, 0.2 mg/L CuSO4.5H2O and 0.02 mg/L NiCl2.6H2O.
as §2, with “20 g/L” for “20 a”
During the fermentation the temperature was controlled at 30° C. and pH was kept constant at pH=7 by adding aqueous NH4OH solution (10 w % NH3). The gassing rate was adjusted to 0.2 L/min air and the dissolved oxygen tension was controlled at 30% air saturation by adjusting the stirrer speed between 200 rpm and 1200 rpm.
40 mL of a 500 g/L oAB stock solution (oAB dissolved with NaOH at pH 7) was added to reactor 1 after 6.4 h and 23.6 h (filled symbols) and 40 mL of a 500 g/L oAB stock solution (oAB dissolved with NH4OH at pH 7) was added after 6.4 h and 23.6 h to reactor 2 (open symbols)
From this it follows that the toxicity of oAB on C. glutamicum ATCC 13032 in presence of high Na+ concentrations is reduced compared to the toxicity in presence of high NH4^+ concentrations.

[2] = tested on: modified C. glutamicum production strain; test: Evaluation of the maximum tolerable oAB concentration, batch cultivation in 1 L bioreactor
Protocol: FIG. 1: Evaluation of the maximum tolerable oAB concentration during batch cultivation in a 1 L lab-scale bioreactor with a modified C. glutamicum production strain. Addition of 20 mL of a 500 g/L oAB stock solution (oAB dissolved with NaOH at pH 7) after 23 h and 39 h, 48 h (two times), 64 h (two times) and 71 h (two times) and addition of glucose solution after 40 h, 48 h, 63 h, 65 and 71.5 h to prevent a glucose limitation. Initial cultivation volume VL=1 L, temperature 30° C., pH=7 controlled by adding NH4OH (10 w % NH3) during cultivation, gassing rate with air=0.2 L/min, pO2 controlled at 30% air saturation by adjusting the stirrer speed between 200 and 1200 rpm.
The maximum tolerable oAB concentration in the presence of sodium ions in the medium was tested with a modified C. glutamicum production strain. This strain was derived from Corynebacterium glutamicum ATCC 13032 by evolutionary engineering in order to increase its resistance against oAB.
This strain was then genetically modified to make it capable of oAB-production. […]

[3] = according to FIG. 3, NH4+ as counter ion

N.Nc1ccccc1C(=O)O [NH4-oAB]
OTR signal after oAB addition [1]: constant OTR signal
biomass concentration after oAB addition [1]: reduced biomass accumulation
biomass accumulation after oAB addition (C. glutamicum ATCC 13032): growth inhibition after 24 h
o-aminobenzoate concentration above which the metabolic activity of bacterial cells (OTR) is limited (C. glutamicum ATCC 13032; [3]): more than 25 g/L
o-aminobenzoate concentration at which cell growth (dry weight) stops (C. glutamicum ATCC 13032; [3]): > 50 g/L

Nc1ccccc1C(=O)[O-].[Na+] [Na-oAB]
OTR signal after oAB addition [1]: continued to increase
biomass concentration after oAB addition [1]: continued to increase
biomass accumulation after oAB addition (C. glutamicum ATCC 13032): biomass accumulation continued

Nc1ccccc1C(=O)O [oAB, 2-aminobenzoic acid]
oAB concentration at which growth (increase in biomass concentration) was still observed ([2]; oAB added stepwise as sodium salt (dissolved with NaOH at pH 7), pH 7 controlled with NH4OH, 30° C.): 80 g/L
oAB concentration resulting in a decrease of the metabolic activity (declining OTR signal) and no further increase in biomass ([2]; oAB increased from 80 g/L to 100 g/L after 71 h, added as sodium salt, pH 7, 30° C.): 100 g/L
